Counter-ions that a name gives are not always drawn.

For the first experiment, the target named is T1, Syk catalytic domain (aa 356-635 with a C-terminal His-tag) (Homo sapiens, UniProt P43405).
T1 construct: His-tag (C); made in house
The experiment can be described thus: In vitro Syk kinase activity measured by trFRET, Syk catalytic domain. It counts as biochemical.
Conditions: not given
In a few lines:
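Kinase reaction: 0.14 nM His-tagged catalytic domain, 0.2 μM biotin-TYR1 peptide, 0.001 mM ATP in 50 mM MOPSO pH 6.5 with MgCl2, MnCl2, DTT, BSA, vanadate, ~60 min at rt, then EDTA quench. Phosphoproduct detected by trFRET (Eu anti-pTyr antibody/streptavidin-APC, 665 nm emission); IC50 from signal in linear range.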
On to `CC(C)(N)c1ccc(-c2nc(C3CCCCC3)n3c2cnc2[nH]ccc23)cc1` [P.3.1.1, 2-(4-(1-Cyclohexyl-6H-imidazo[1,5-a]pyrrolo[2,3-e]pyrazin-3-yl)phenyl)propan-2-amine], for which the IC50 – broadly, the point on the concentration scale where inhibition reaches its midpoint – lay in the range of 100 to 1000 nM.
Same read-out and setting: then `COc1ccc(-c2nc([C@@H]3CC[C@H](N)C3)n3c2cnc2[nH]ccc23)cc1` [P.3.1.2], with 100 to 1000 nM; and `CCc1c(-c2ccc(C(C)(C)N)cc2)[nH]c2ncc3cnn(C)c3c12` [P.3.1.3], with 100 to 1000 nM; and `C1=C(c2ncn3c2cnc2[nH]ccc23)CCNC1` [P.3.1.4, 3-(1,2,3,6-Tetrahydropyridin-4-yl)-6H-imidazo[1,5-a]pyrrolo[2,3-e]pyrazine], with more than 10000 nM.
Compound `Cc1nc(-c2ccc(C3(O)CCNCC3)cc2)c2cnc3[nH]ccc3n12` [P.3.1.5, 4-(4-(1-Methyl-6H-imidazo[1,5-a]pyrrolo[2,3-e]pyrazin-3-yl)phenyl)piperidin-4-ol hydrochloride] displayed an IC50 of less than 100 nM.
On the same count and under the same terms, then `OC1(c2ccc(-c3ncn4c3cnc3[nH]ccc34)cc2)CCNCC1` [P.3.1.6], with less than 100 nM.
Still for that read-out and setting: then `CC(C)(O)c1ccc(-c2nc(CN3CCNCC3)n3c2cnc2[nH]ccc23)cc1` [P.3.1.7], with 100 to 1000 nM; and `CC(C)(O)c1ccc(-c2nc(CN3CCC(N)CC3)n3c2cnc2[nH]ccc23)cc1` [P.3.1.8], with 100 to 1000 nM.
Same read-out and setting: then `CC(C)(O)c1ccc(-c2nc([C@H]3CCC[C@H](N)C3)n3c2cnc2[nH]ccc23)cc1` [P.3.1.9], with less than 100 nM.
Regarding `CC(C)(O)c1ccc(-c2nc([C@@H]3CCNC3)n3c2cnc2[nH]ccc23)cc1` [P.3.1.10], the IC50 lay within 100 to 1000 nM.
The same measure, in the same setting: then `CS(=O)(=O)c1ccc(-c2nc([C@H]3CC[C@H](N)CC3)n3c2cnc2[nH]ccc23)cc1` [P.3.1.11], with 100 to 1000 nM; and `COc1ccc(-c2ncn3c2cnc2[nH]cc(C4=CCNCC4)c23)cc1` [P.3.1.12], with 1000 to 10000 nM.
On the same count and under the same terms, under `CC1CN(Cc2nc(-c3ccc(C(C)(C)O)cc3)c3cnc4[nH]ccc4n23)CCN1` (stereo not shown) [P.3.1.13] stands 100 to 1000 nM; under `CCc1c(-c2ccc(C(C)(C)O)cc2)[nH]c2ncc3cncn3c12` [S.1.1], less than 100 nM; under `CCc1c(-c2ccc(C(C)(C)O)cc2)[nH]c2ncc3cnc(N(C)C)n3c12` [S.1.2], 100 to 1000 nM.
On the same count and under the same terms, then `Cn1nc(-c2ccc(C(C)(C)O)cc2)c2cnc3[nH]ccc3c21` [S.1.3], with less than 100 nM; and `Cc1c(-c2ccc(C(C)(C)O)cc2)[nH]c2ncc3nncn3c12` [S.1.4], with 100 to 1000 nM; and `Cc1c(-c2ccc(C(C)(C)O)cc2)[nH]c2ncc3nnc(C)n3c12` [S.1.5], with 1000 to 10000 nM.
`CCc1c(-c2ccc(C(C)(C)O)cc2)[nH]c2ncc3cccn3c12` [S.1.6] returned an IC50 of less than 100 nM.
The same measure, in the same setting: under `CCc1c(-c2ccc(C(C)(C)O)cc2)[nH]c2nc(C)c3cncn3c12` [S.1.7] stands 100 to 1000 nM; under `CCc1c(-c2ccc(C(C)(C)O)cc2)[nH]c2ncc3cnnn3c12` [S.1.8], less than 100 nM.
`CCc1c(-c2ccc(C(C)(C)O)cc2)[nH]c2ncc3nncn3c12` [S.1.9] had an IC50 of 100 to 1000 nM.
On the same count and under the same terms, under `Cc1cnc2cnc3[nH]c(-c4ccc(C(C)(C)O)cc4)cc3n12` [S.1.10] stands 100 to 1000 nM.
The same measure, in the same setting: under `Cc1nc(-c2ccc(C(C)(C)O)s2)c2cnc3[nH]ccc3n12` [S.1.11] stands less than 100 nM; under `Cn1ncc2cnc3[nH]c(-c4ccc[nH]4)cc3c21` [T.3.1.2], 100 to 1000 nM; under `COc1ccc(-c2nc([C@H]3CCC[C@@H](N)C3)n3c2cnc2[nH]ccc23)cc1` [T.3.1.3], 100 to 1000 nM.
On the same count and under the same terms, then `COc1ccc(-c2nc(CN3CCNCC3)n3c2cnc2[nH]ccc23)cc1` [T.3.1.4], with 100 to 1000 nM; and `c1cc2c(ncc3c(-c4ccc(OC5CCNC5)cc4)ncn32)[nH]1` (stereo not shown) [T.3.1.5], with 100 to 1000 nM.
`COc1ccc(-c2nc(CN3CCNC(CO)C3)n3c2cnc2[nH]ccc23)cc1` (stereo not shown) [T.3.1.6] came in with an IC50 of 100 to 1000 nM.
Still for that read-out and setting: under `CS(=O)(=O)c1ccc(-c2nc(COCCN)n3c2cnc2[nH]ccc23)cc1` [T.4.1.1] stands 100 to 1000 nM; under `CC(C)(O)c1ccc(-c2nc(CC3CCNCC3)n3c2cnc2[nH]ccc23)cc1` [T.4.1.2], less than 100 nM; under `CC(C)(N)CCc1nc(-c2ccc(C(C)(C)O)cc2)c2cnc3[nH]ccc3n12` [T.4.1.3], 100 to 1000 nM.
Same read-out and setting: under `CC(=O)c1ccc(-c2nn(C)c3c2cnc2[nH]ccc23)cc1` [W.1.1, 1-(4-(1-Methyl-1,6-dihydropyrazolo[3,4-d]pyrrolo[2,3-b]pyridin-3-yl)phenyl)ethanone] stands 100 to 1000 nM.

The experiment is the same for the next values; noted with them: Syk catalytic domain (aa 356-635), trFRET, 0.001 mM ATP.
`Cc1cc(-c2cc3c(ncc4cnn(C)c43)[nH]2)ccc1N1CCN(C)CC1` [N.1.115] gave an IC50 of less than 100 nM.
For the compound `COc1ccc2c(n1)c(-c1cc3c(ncc4cnn(C)c43)[nH]1)cn2C` [N.1.116], the IC50 was 100 to 1000 nM.
On the same count and under the same terms, under `Cn1cc(-c2cc3c(ncc4cnn(C)c43)[nH]2)c2nccnc21` [N.1.117] stands 100 to 1000 nM; under `Cn1ncc2cnc3[nH]c(-c4ccncc4)cc3c21` [N.2.1], 100 to 1000 nM.
`Cn1ncc2cnc3[nH]c(-c4cccnc4)cc3c21` [N.2.2] showed a concentration for half-maximal inhibition (IC50) of 100 to 1000 nM.
The same measure, in the same setting: then `CN(C)CCOc1ccc(-c2cc3c(ncc4cnn(C)c43)[nH]2)cc1` [N.2.3], with 100 to 1000 nM; and `Cn1ncc2cnc3[nH]c(-c4ccc(OCCN5CCOCC5)cc4)cc3c21` [N.2.4], with less than 100 nM; and `Cn1ncc2cnc3[nH]c(-c4ccc(OCCCN5CCOCC5)cc4)cc3c21` [N.2.5], with less than 100 nM.
On the same count and under the same terms, then `Cn1ncc2cnc3[nH]c(-c4cccc5ncccc45)cc3c21` [N.2.6], with 1000 to 10000 nM; and `Cn1ncc2cnc3[nH]c(-c4ccc5ncccc5c4)cc3c21` [N.2.7], with 100 to 1000 nM; and `Cn1ncc2cnc3[nH]c(-c4ccc5nccnc5c4)cc3c21` [N.2.8], with 100 to 1000 nM.
Still for that read-out and setting: under `COc1ccc2c(c1)c(-c1cc3c(ncc4cnn(C)c43)[nH]1)cn2CC(=O)N1CCOCC1` [N.2.9] stands less than 100 nM; under `COc1ccc2c(c1)c(-c1cc3c(ncc4cnn(C)c43)[nH]1)cn2CCN1CCOCC1` [N.2.11], less than 100 nM; under `COc1ccc2c(c1)c(-c1cc3c(ncc4cnn(C)c43)[nH]1)cn2CCO` [N.2.12], less than 100 nM.
The compound `COc1ccc2c(c1)c(-c1cc3c(ncc4cnn(C)c43)[nH]1)cn2CCN(C)C` [N.2.13] showed an IC50 of 100 to 1000 nM.
`COc1ccc2c(c1)c(-c1cc3c(ncc4cnn(C)c43)[nH]1)cn2CC(=O)N1CCN(C)CC1` [N.2.14] displayed an IC50 of less than 100 nM.
Still for that read-out and setting: then `COc1ccc2c(c1)c(-c1cc3c(ncc4cnc([C@@H]5CCNC5)n43)[nH]1)cn2C` [T.1.1.2, (R)-7-(5-Methoxy-1-methyl-1H-indol-3-yl)-1-(pyrrolidin-3-yl)-6H-imidazo[1,5-a]pyrrolo[2,3-e]pyrazine diacetate], with less than 100 nM.
In the case of `COc1ccc2c(c1)c(-c1cc3c(ncc4cnc(CCCN)n43)[nH]1)cn2C` [T.1.1.3], the IC50 was less than 100 nM.
Same read-out and setting: then `COc1ccc2c(c1)c(-c1cc3c(ncc4cnc(CCN)n43)[nH]1)cn2C` [T.1.1.4], with less than 100 nM; and `CS(=O)(=O)c1cccc(-c2cc3c(ncc4cnc(CCCN)n43)[nH]2)c1` [T.1.1.6], with 100 to 1000 nM.
The same measure, in the same setting: under `COc1ccc2c(c1)c(-c1cc3c(ncc4cnc(CN)n43)[nH]1)cn2C` [T.2.1, (7-(5-Methoxy-1-methyl-1H-indol-3-yl)-6H-imidazo[1,5-a]pyrrolo[2,3-e]pyrazin-1-yl)methanamine] stands 100 to 1000 nM; under `Cn1ncc2cnc3[nH]c(-c4cccc(CN)c4)cc3c21` [T.3.1, (3-(1-Methyl-1,6-dihydropyrazolo[3,4-d]pyrrolo[2,3-b]pyridin-7-yl)phenyl)methanamine], 1000 to 10000 nM.

The record behind these values is patent US20140349970A1 (ABBVIE INC., priority 2009, published 2014).
